Test results: patent US20070093433A1, “Aminoglycoside antibiotics for use as vap-1/ssao inhibitors” (priority 2003, published 2007)

Key:
[1] = biological target: T1, VAP-1 (Homo sapiens, UniProt Q16853); assay: SSAO (amine oxidase) activity of VAP-1 transfected cells, radiochemical [14C]-benzylamine and fluorometric Amplex Red H2O2 assays; assay type: cell-based; set-up: expressed in transfected cells; host or cells: Ax endothelial cells or CHO cells; conditions: for % of inhibition: VAP-1 transfected Ax endothelial or CHO cells, benzylamine substrate, 30 min pre-incubation at 37° C., agents at 1 mg/ml and 100 μg/ml (concentration not given), representative of 2 to 5 experiments; for effect on enzymatic (SSAO) activity of VAP-1, in words: VAP-1 transfected cells, summary of Table I
T1 sequence (Q16853 1-763): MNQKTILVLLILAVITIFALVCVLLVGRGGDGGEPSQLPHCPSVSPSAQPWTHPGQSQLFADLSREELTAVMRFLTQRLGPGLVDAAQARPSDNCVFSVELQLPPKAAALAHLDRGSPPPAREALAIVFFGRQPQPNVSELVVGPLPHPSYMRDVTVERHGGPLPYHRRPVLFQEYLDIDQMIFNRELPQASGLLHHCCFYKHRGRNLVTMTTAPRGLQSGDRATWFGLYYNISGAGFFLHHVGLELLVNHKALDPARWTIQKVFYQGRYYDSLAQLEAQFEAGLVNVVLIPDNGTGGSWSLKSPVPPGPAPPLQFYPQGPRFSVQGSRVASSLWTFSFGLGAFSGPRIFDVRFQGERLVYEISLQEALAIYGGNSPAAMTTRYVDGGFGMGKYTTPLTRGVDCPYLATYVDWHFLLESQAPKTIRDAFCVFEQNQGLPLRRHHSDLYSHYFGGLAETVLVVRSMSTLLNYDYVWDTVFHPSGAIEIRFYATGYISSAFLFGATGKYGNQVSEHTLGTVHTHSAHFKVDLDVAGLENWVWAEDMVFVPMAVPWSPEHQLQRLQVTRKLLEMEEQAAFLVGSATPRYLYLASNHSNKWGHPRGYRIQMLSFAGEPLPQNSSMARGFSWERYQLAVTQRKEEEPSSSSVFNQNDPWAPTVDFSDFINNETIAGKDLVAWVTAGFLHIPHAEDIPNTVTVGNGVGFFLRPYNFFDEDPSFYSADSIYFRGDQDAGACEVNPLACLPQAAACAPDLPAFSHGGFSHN
Method: Amine oxidase activity was assayed radiochemically using [7-^14C]-benzylamine hydrochloride (spec. act. 57 mCi/mmol, Amersham) as a substrate. In brief, the cells (VAP-1 transfected Ax endothelial cells or VAP-1 transfected CHO cells and their mock transfected controls) were seeded onto gelatin-coated 24-well tissue culture plates and allowed to reach confluence. Prior to experiments, the cells were rinsed twice with RPMI 1640 and pre-incubated 30 min at 37° C. in 0.3 ml RPMI-1640 medium containing amikacin, tobramycin, gentamicin, streptomicin or geneticin (1 mg/ml). The reaction was initiated by addition of 6 μmol/L [^14C]-benzylamine (40000 dpm) and terminated after 1 hour by citric acid. The aldehydes were extracted into toluene containing diphenyloxazole and the formation of [^14C]-labelled benzaldehyde was quantified by scintillation counting.
SSAO activity of the cells was also independently measured using Amplex Red reagent (10-acetyl-3,7-dihydroxyphenoxazine; Molecular Probes Europe BV), a highly sensitive and stable probe for H2O2. Cultured cells (VAP-1 transfected Ax endothelial cells or VAP-1 transfected CHO cells and their mock transfected controls) were rinsed with Krebs Ringer phosphate glucose (KRPG; 145 mM NaCl, 5.7 mM sodium phosphate, 4.86 mM KCl, 0.54 mM CaCl2, 1.22 mM MgSO4, 5.5 mM glucose, pH 7.35) and pre-incubated 30 min at 37° C. in 200 μl KRPG containing amikacin, tobramycin, gentamicin, netilmicin, streptomycin, geneticin, glucosamine, mannosamine, galactosamine, or puromycin (1 mg/ml and 100 μg/ml). Catalytic reaction was initiated by addition of benzylamine as substrates and H2O2-detecting mixture containing horseradish peroxidase (final concentration 0.8 U/ml) and Amplex Red reagent (60 μM). The plates were incubated for 1-2 hours at 37° C. in the final volume of 250 μl, the bathing medium was clarified by centrifugation and placed in aliquots (200 μl) into white non-phosphorescent microplates (Cliniplate). Fluorescence intensity of the samples was measured (excitation, 545 nm; emission, 590 nm; Tecan ULTRA fluoropolarometer) and H2O2 concentration was calculated from calibration curves generated by serial dilutions of either standard H2O2 or resorufin, the product of the Amplex Red reaction (Molecular Probes).

[2] = biological target: T1, VAP-1; assay: Tobramycin serum concentration after intravenous injection in VAP KO+TG versus VAP KO mice (fluorescence polarization immunoassay); assay type: in vivo, mouse; set-up: expressed in transfected cells; host or cells: mTIEhVAP-1 transgenic / mouse VAP-1 knockout mice (VAP KO+TG), expression on vasculature; conditions: 3 mg/kg intravenously
Excerpt: The mTIEhVAP-1 line E35 mice expressing human VAP-1 on vasculature were crossed to VAP-1 knockout mice that were previously created by using conventional gene targeting techniques to replace the mouse VAP-1 gene with a nonfunctional mutant-allele. The mTIEhVAP-1 transgene, mouse VAP-1 mutant-allele and endogenous mouse VAP-1 allele were all identified by PCR screening of purified genomic DNA with specific primers and verified immunohistochemically with human and mouse VAP-1 antibodies.
These mice and VAP KO mice as controls received intravenously tobramycin 3 mg/kg and tobramycin concentration from serum was measured after 30 min, 1, 2 and 3 hours after injections using fluorescence polarization immunoassay.

Compound	% of inhibition [1] [%]	effect on enzymatic (SSAO) activity of VAP-1, in words [1]	tobramycin concentration in serum, VAP KO+TG mice compared with VAP KO mice ([2]; at 2 and 3 hours, mice expressing human VAP-1 vs VAP KO mice)	difference in serum tobramycin concentration between VAP KO mice and VAP KO+TG mice ([2]; at 3 hours)
NCC[C@H](O)C(=O)N[C@@H]1C[C@H](N)[C@@H](O[C@H]2O[C@H](CN)[C@@H](O)[C@H](O)[C@H]2O)[C@H](O)[C@H]1O[C@H]1O[C@H](CO)[C@@H](O)[C@H](N)[C@H]1O [Amikacin, amikacin]	84	diminished to variable extent	–	–
N[C@H]1C(O)O[C@H](CO)[C@H](O)[C@@H]1O (some centres unmarked) [Galactosamine, galactosamine]	12	did not significantly inhibit	–	–
CN[C@@H]1[C@@H](O)[C@@H](O[C@@H]2[C@@H](O)[C@H](O[C@H]3O[C@H]([C@@H](C)O)[C@@H](O)[C@H](O)[C@H]3N)[C@@H](N)C[C@H]2N)OC[C@]1(C)O [Geneticin, geneticin]	46	–	–	–
N[C@H]1C(O)O[C@H](CO)[C@@H](O)[C@@H]1O (some centres unmarked) [Glucosamine, glucosamine]	0	did not significantly inhibit	–	–
N[C@@H]1C(O)O[C@H](CO)[C@@H](O)[C@@H]1O (some centres unmarked) [Mannosamine, mannosamine]	20	did not significantly inhibit	–	–
CCN[C@@H]1C[C@H](N)[C@@H](O[C@H]2OC(CN)=CC[C@H]2N)[C@H](O)[C@H]1O[C@H]1OC[C@](C)(O)[C@H](NC)[C@H]1O [Netilmicin, netilmicin]	45	diminished to variable extent	–	–
COc1ccc(C[C@H](N)C(=O)N[C@H]2[C@@H](O)[C@H](n3cnc4c(N(C)C)ncnc43)O[C@@H]2CO)cc1 [Puromycin, puromycin]	59	diminished to variable extent	–	–
[H]/N=C(/N)N[C@H]1[C@H](O)[C@@H](O)[C@H](O[C@@H]2O[C@@H](C)[C@](O)(C=O)[C@H]2O[C@@H]2O[C@@H](CO)[C@H](O)[C@@H](O)[C@@H]2NC)[C@@H](N/C(N)=N\[H])[C@@H]1O [Streptomicin, streptomycin]	5	–	–	–
NC[C@H]1O[C@H](O[C@H]2[C@H](O)[C@@H](O[C@H]3O[C@H](CO)[C@@H](O)[C@H](N)[C@H]3O)[C@H](N)C[C@@H]2N)[C@H](N)C[C@@H]1O [Tobramycin, tobramycin]	78	diminished to variable extent	lower concentrations	two fold
gentamicin	46	diminished to variable extent	–	–
